Experimental data: US10167262B2, “Herbicidal substituted 3-arylpyrazoles” (FMC CORPORATION, priority 2014, dated 2019)

What was measured:
Assay in all cases: Test E pre-/postemergence greenhouse test, plant response rating 0-100
Assay type in all cases: in vivo
[1] = tested on: wild poinsettia (Euphorbia heterophylla); conditions: scale 0 to 100; for Plant response rating, Poinsettia, Wild: Postemergence; for Poinsettia, Wild plant response rating: Preemergence
Summary of the method: (§1)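 Visual control score, 0–100 relative to untreated plants, recorded 14–21 days after spraying. Treatments: preemergence on silt loam seedbeds and postemergence at the 1- to 4-leaf stage, with compound in surfactant-containing solvent.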

[2] = tested on: corn (Zea mays); conditions: scale 0 to 100; for Plant response rating, Corn: Postemergence; for Corn plant response rating: Preemergence
Summary of the method: as §1

[3] = tested on: arrowleaf sida (Sida rhombifolia); conditions: for Plant response rating, Arrowleaf Sida: Postemergence; for Arrowleaf Sida plant response rating: Preemergence
Summary of the method: as §1

[4] = tested on: Brazilian crabgrass (Digitaria horizontalis); conditions: Postemergence, scale 0 to 100
Summary of the method: as §1

[5] = tested on: barnyardgrass (Echinochloa crus-galli); conditions: scale 0 to 100; for Plant response rating, Barnyardgrass: Postemergence; for Barnyardgrass plant response rating: Preemergence
Summary of the method: as §1

[6] = tested on: soybean (Glycine max); conditions: scale 0 to 100; for Plant response rating, Soybean: Postemergence; for Soybean plant response rating: Preemergence
Summary of the method: as §1

[7] = tested on: waterhemp (common waterhemp, Amaranthus rudis); conditions: scale 0 to 100; for Plant response rating, Waterhemp: Postemergence; for Waterhemp plant response rating: Preemergence
Summary of the method: as §1

[8] = tested on: palmer pigweed (Amaranthus palmeri); conditions: scale 0 to 100; for Plant response rating, Pigweed, Palmer: Postemergence; for Pigweed, Palmer plant response rating: Preemergence
Summary of the method: as §1

[9] = tested on: hairy beggarticks (Bidens pilosa); conditions: scale 0 to 100; for Plant response rating, Beggarticks: Postemergence; for Beggarticks plant response rating: Preemergence
Summary of the method: as §1

[10] = tested on: fall panicum (Panicum dichotomiflorum); conditions: scale 0 to 100; for Plant response rating, Panicum, Fall: Postemergence; for Panicum, Fall plant response rating: Preemergence
Summary of the method: as §1

[11] = tested on: sandbur (southern sandbur, Cenchrus echinatus); conditions: scale 0 to 100; for Plant response rating, Sandbur: Postemergence; for Sandbur plant response rating: Preemergence
Summary of the method: as §1

O=C(c1ccccc1)c1cn(S(=O)(=O)C(F)(F)F)nc1-c1cc(Cl)cc(Cl)c1 [Compound 2]
Plant response rating, Poinsettia, Wild ([1]; 31 g ai/ha): 0 | Plant response rating, Poinsettia, Wild ([1]; 62 g ai/ha): 0 | Plant response rating, Poinsettia, Wild ([1]; 125 g ai/ha): 0 | Plant response rating, Poinsettia, Wild ([1]; 250 g ai/ha): 0 | Plant response rating, Poinsettia, Wild ([1]; 500 g ai/ha): 0 | Poinsettia, Wild plant response rating ([1]; 62 g ai/ha): 0 | Poinsettia, Wild plant response rating ([1]; 125 g ai/ha): 0 | Poinsettia, Wild plant response rating ([1]; 250 g ai/ha): 0 | Poinsettia, Wild plant response rating ([1]; 500 g ai/ha): 0 | Plant response rating, Corn ([2]; 31 g ai/ha): 0 | Plant response rating, Corn ([2]; 62 g ai/ha): 0 | Plant response rating, Corn ([2]; 125 g ai/ha): 0 | Plant response rating, Corn ([2]; 250 g ai/ha): 0 | Plant response rating, Corn ([2]; 500 g ai/ha): 0 | Corn plant response rating ([2]; 31 g ai/ha): 0 | Corn plant response rating ([2]; 62 g ai/ha): 0 | Corn plant response rating ([2]; 125 g ai/ha): 0 | Corn plant response rating ([2]; 250 g ai/ha): 0 | Corn plant response rating ([2]; 500 g ai/ha): 0 | Plant response rating, Arrowleaf Sida ([3]; 31 g ai/ha, scale 0 to 100): 95 | Plant response rating, Arrowleaf Sida ([3]; 62 g ai/ha, scale 0 to 100): 95 | Plant response rating, Arrowleaf Sida ([3]; 125 g ai/ha, scale 0 to 100): 95 | Plant response rating, Arrowleaf Sida ([3]; 250 g ai/ha, scale 0 to 100): 95 | Plant response rating, Arrowleaf Sida ([3]; 500 g ai/ha, scale 0 to 100 (0 no effect, 100 complete control)): 98 | Arrowleaf Sida plant response rating ([3]; 31 g ai/ha, scale 0 to 100): 35 | Arrowleaf Sida plant response rating ([3]; 62 g ai/ha, scale 0 to 100): 35 | Arrowleaf Sida plant response rating ([3]; 125 g ai/ha, scale 0 to 100): 50 | Arrowleaf Sida plant response rating ([3]; 250 g ai/ha, scale 0 to 100): 98 | Arrowleaf Sida plant response rating ([3]; 500 g ai/ha, scale 0 to 100): 95 | Plant response rating, Crabgrass, Brazil ([4]; 31 g ai/ha): 0 | Plant response rating, Crabgrass, Brazil ([4]; 62 g ai/ha): 0 | Plant response rating, Crabgrass, Brazil ([4]; 125 g ai/ha): 0 | Plant response rating, Crabgrass, Brazil ([4]; 250 g ai/ha): 0 | Plant response rating, Crabgrass, Brazil ([4]; 500 g ai/ha): 0 | Plant response rating, Barnyardgrass ([5]; 31 g ai/ha): 0 | Plant response rating, Barnyardgrass ([5]; 62 g ai/ha): 0 | Plant response rating, Barnyardgrass ([5]; 125 g ai/ha): 0 | Plant response rating, Barnyardgrass ([5]; 250 g ai/ha): 0 | Plant response rating, Barnyardgrass ([5]; 500 g ai/ha): 0 | Barnyardgrass plant response rating ([5]; 31 g ai/ha): 0 | Barnyardgrass plant response rating ([5]; 62 g ai/ha): 0 | Barnyardgrass plant response rating ([5]; 125 g ai/ha): 0 | Barnyardgrass plant response rating ([5]; 250 g ai/ha): 0 | Barnyardgrass plant response rating ([5]; 500 g ai/ha): 0 | Plant response rating, Soybean ([6]; 31 g ai/ha): 0 | Plant response rating, Soybean ([6]; 62 g ai/ha): 0 | Plant response rating, Soybean ([6]; 125 g ai/ha): 0 | Plant response rating, Soybean ([6]; 250 g ai/ha): 0 | Plant response rating, Soybean ([6]; 500 g ai/ha): 0 | Soybean plant response rating ([6]; 125 g ai/ha): 0 | Soybean plant response rating ([6]; 250 g ai/ha): 0 | Soybean plant response rating ([6]; 500 g ai/ha): 0 | Plant response rating, Waterhemp ([7]; 31 g ai/ha): 90 | Plant response rating, Waterhemp ([7]; 62 g ai/ha): 80 | Plant response rating, Waterhemp ([7]; 125 g ai/ha): 98 | Plant response rating, Waterhemp ([7]; 250 g ai/ha): 98 | Plant response rating, Waterhemp ([7]; 500 g ai/ha): 100 | Waterhemp plant response rating ([7]; 31 g ai/ha): 0 | Waterhemp plant response rating ([7]; 125 g ai/ha): 30 | Waterhemp plant response rating ([7]; 250 g ai/ha): 65 | Waterhemp plant response rating ([7]; 500 g ai/ha): 100 | Plant response rating, Pigweed, Palmer ([8]; 31 g ai/ha): 65 | Plant response rating, Pigweed, Palmer ([8]; 62 g ai/ha): 85 | Plant response rating, Pigweed, Palmer ([8]; 125 g ai/ha): 90 | Plant response rating, Pigweed, Palmer ([8]; 250 g ai/ha): 95 | Plant response rating, Pigweed, Palmer ([8]; 500 g ai/ha): 100 | Pigweed, Palmer plant response rating ([8]; 31 g ai/ha): 0 | Pigweed, Palmer plant response rating ([8]; 62 g ai/ha): 0 | Pigweed, Palmer plant response rating ([8]; 125 g ai/ha): 0 | Pigweed, Palmer plant response rating ([8]; 250 g ai/ha): 0 | Pigweed, Palmer plant response rating ([8]; 500 g ai/ha): 100 | Plant response rating, Beggarticks ([9]; 31 g ai/ha): 80 | Plant response rating, Beggarticks ([9]; 62 g ai/ha): 90 | Plant response rating, Beggarticks ([9]; 125 g ai/ha): 100 | Plant response rating, Beggarticks ([9]; 250 g ai/ha): 100 | Plant response rating, Beggarticks ([9]; 500 g ai/ha): 100 | Beggarticks plant response rating ([9]; 31 g ai/ha): 0 | Beggarticks plant response rating ([9]; 62 g ai/ha): 0 | Beggarticks plant response rating ([9]; 125 g ai/ha): 0 | Beggarticks plant response rating ([9]; 250 g ai/ha): 0 | Beggarticks plant response rating ([9]; 500 g ai/ha): 0 | Plant response rating, Panicum, Fall ([10]; 31 g ai/ha): 0 | Plant response rating, Panicum, Fall ([10]; 62 g ai/ha): 0 | Plant response rating, Panicum, Fall ([10]; 125 g ai/ha): 0 | Plant response rating, Panicum, Fall ([10]; 250 g ai/ha): 25 | Plant response rating, Panicum, Fall ([10]; 500 g ai/ha): 40 | Panicum, Fall plant response rating ([10]; 31 g ai/ha): 0 | Panicum, Fall plant response rating ([10]; 62 g ai/ha): 0 | Panicum, Fall plant response rating ([10]; 125 g ai/ha): 0 | Panicum, Fall plant response rating ([10]; 250 g ai/ha): 0 | Panicum, Fall plant response rating ([10]; 500 g ai/ha): 0 | Plant response rating, Sandbur ([11]; 31 g ai/ha): 0 | Plant response rating, Sandbur ([11]; 62 g ai/ha): 0 | Plant response rating, Sandbur ([11]; 125 g ai/ha): 0 | Plant response rating, Sandbur ([11]; 250 g ai/ha): 0 | Plant response rating, Sandbur ([11]; 500 g ai/ha): 0 | Sandbur plant response rating ([11]; 31 g ai/ha): 0 | Sandbur plant response rating ([11]; 62 g ai/ha): 0 | Sandbur plant response rating ([11]; 125 g ai/ha): 0 | Sandbur plant response rating ([11]; 250 g ai/ha): 0 | Sandbur plant response rating ([11]; 500 g ai/ha): 0
